Data: paper PMC11822212, “High-throughput screening identifies Aurora kinase B as a critical therapeutic target for Merkel cell carcinoma” (Nature Communications, 2025)
Values joined by “and” are separate entries in the source; they are usually repeats but may differ in a detail not shown here. Equal entries are not always repeated. Structures can show the parent of a compound that is named as a salt. Where two headings read alike, the source gives them in different places.

Tests used:
[1] = system: NIH-3T3 cells; assay: qHTS cell viability (CellTiter-Glo, 72 h; primary screen), control cell line; assay type: cell-based, mouse
[2] = system: MCC26 cells (VN-MCC); assay: qHTS cell viability (CellTiter-Glo, 72 h; primary and follow-up small molecule screen); assay type: cell-based, human
[3] = system: VP-MCC cell lines (WAGA, MKL-1, MKL-2); assay: qHTS cell viability, VP-MCC cell lines as a group (mean AUC, VP.MCC.avg); assay type: cell-based, human
[4] = system: WAGA cells (VP-MCC); assay: qHTS cell viability (CellTiter-Glo, 72 h; primary and follow-up small molecule screen); assay type: cell-based, human; settings: for Area under the dose-response curve (AUC) WAGA Replicate 1 / Area under the dose-response curve (AUC) WAGA Replicate 2 / Area under the dose-response curve (AUC) WAGA Replicate 3: follow-up screen
[5] = system: MKL-1 cells (VP-MCC); assay: as above; assay type: cell-based, human; settings: for Area under the dose-response curve (AUC) MKL-1 Replicate 1 / Area under the dose-response curve (AUC) MKL-1 Replicate 2 / Area under the dose-response curve (AUC) MKL-1 Replicate 3: follow-up screen
[6] = system: VN-MCC cell lines (MCC13, MCC26, UISO); assay: qHTS cell viability, VN-MCC cell lines as a group (mean AUC, VN.MCC.avg); assay type: cell-based, human
[7] = system: six MCC cell lines and four control cell lines; assay: qHTS cell viability, all 10 cell lines screened; assay type: cell-based
[8] = system: CRL-7250 cells; assay: qHTS cell viability (CellTiter-Glo, 72 h; primary screen), control cell line; assay type: cell-based
[9] = system: HACAT cells; assay: as above; assay type: cell-based, human
[10] = system: MCC cell lines (WAGA, MKL-1, MKL-2, MCC13, MCC26, UISO); assay: qHTS cell viability, all six MCC cell lines as a group (mean AUC, MCC.avg); assay type: cell-based, human
[11] = system: control cell lines (HACAT, HEK293T, CRL-7250, NIH-3T3); assay: qHTS cell viability, control cell lines as a group (mean AUC, Control.avg); assay type: cell-based
[12] = system: HEK293T cells; assay: qHTS cell viability (CellTiter-Glo, 72 h; primary screen), control cell line; assay type: cell-based, human
[13] = system: MKL-2 cells (VP-MCC); assay: qHTS cell viability (CellTiter-Glo, 72 h; primary and follow-up small molecule screen); assay type: cell-based, human; settings: for Area under the dose-response curve (AUC) MKL-2 Replicate 1 / Area under the dose-response curve (AUC) MKL-2 Replicate 2 / Area under the dose-response curve (AUC) MKL-2 Replicate 3: follow-up screen
[14] = system: UISO cells (VN-MCC); assay: as above; assay type: cell-based, human; settings: for Area under the dose-response curve (AUC) UISO Replicate 1 / Area under the dose-response curve (AUC) UISO Replicate 2 / Area under the dose-response curve (AUC) UISO Replicate 3: follow-up screen
[15] = system: MCC13 cells (VN-MCC); assay: as above; assay type: cell-based, human; settings: for Area under the dose-response curve (AUC) MCC13 Replicate 1 / Area under the dose-response curve (AUC) MCC13 Replicate 2 / Area under the dose-response curve (AUC) MCC13 Replicate 3: follow-up screen
[16] = NPC library, qHTS dose-response AUC, NIH3T3 control
[17] = NPC library; qHTS dose-response AUC, MCC26
[18] = NPC library, mean AUC of VP-MCC cell lines
[19] = NPC library, therapeutic window: Control avg AUC minus VP-MCC avg AUC
[20] = NPC library, qHTS dose-response AUC, WAGA
[21] = NPC library, qHTS dose-response AUC, MKL1
[22] = NPC library, mean AUC of VN-MCC cell lines
[23] = NPC library, therapeutic window: Control avg AUC minus VN-MCC avg AUC
[24] = NPC library, therapeutic window: Control avg AUC minus MCC avg AUC
[25] = NPC library, qHTS dose-response AUC, CRL7250 control
[26] = NPC library, qHTS dose-response AUC, HACAT control
[27] = NPC library, mean AUC of six MCC cell lines
[28] = NPC library, mean AUC of control cell lines
[29] = NPC library; qHTS dose-response AUC, HEK293T control
[30] = NPC library, qHTS dose-response AUC, MKL2
[31] = NPC library, qHTS dose-response AUC, UISO
[32] = NPC library, qHTS dose-response AUC, MCC13
[33] = MIPE library, 11-point DRC, control cell line, sheet S2E
[34] = MIPE library, 11-point DRC, sheet S2E
[35] = follow-up screen; MCC26; replicate 1
[36] = follow-up screen; MCC26; replicate 2
[37] = follow-up screen; MCC26; replicate 3

## Cc1cc(OCCOCC[N+](C)(C)Cc2ccccc2)ccc1C(C)(C)CC(C)(C)C.[Cl-] [Methylbenzethonium chloride]
[1]; [16]
  NIH3T3_AUC: 469.697
[2]; [17]
  MCC26_AUC: 455.487
[3]; [18]
  VP-MCC_Avg_AUC: 240.895
[3]; [19]
  Control-VP-MCC: 174.06
[4]; [20]
  WAGA_AUC: 200.731
[5]; [21]
  MKL1_AUC: 312.601
[6]; [22]
  VN-MCC_Avg_AUC: 436.818
[6]; [23]
  Control-VN-MCC: -21.8625
[7]; [24]
  Control-MCC: 76.0988
[8]; [25]
  CRL7250_AUC: 444.568
[9]; [26]
  HACAT_AUC: 428.465
[10]; [27]
  MCC_Avg_AUC: 338.857
[11]; [28]
  Control_Avg_AUC: 414.956
[12]; [29]
  HEK293T_AUC: 317.092
[13]; [30]
  MKL2_AUC: 209.354
[14]; [31]
  UISO_AUC: 375.218
[15]; [32]
  MCC13_AUC: 479.749

## CCOC(=O)[C@@](C)(N)Cc1ccc(O)c(O)c1 [Methyldopate hydrochloride]
[1]; [16]
  NIH3T3_AUC: 431.18
[2]; [17]
  MCC26_AUC: 437.99
[3]; [18]
  VP-MCC_Avg_AUC: 389.202
[3]; [19]
  Control-VP-MCC: 52.6846
[4]; [20]
  WAGA_AUC: 402.509
[5]; [21]
  MKL1_AUC: 366.496
[6]; [22]
  VN-MCC_Avg_AUC: 434.044
[6]; [23]
  Control-VN-MCC: 7.843
[7]; [24]
  Control-MCC: 30.264
[8]; [25]
  CRL7250_AUC: 412.089
[9]; [26]
  HACAT_AUC: 480.325
[10]; [27]
  MCC_Avg_AUC: 411.623
[11]; [28]
  Control_Avg_AUC: 441.887
[12]; [29]
  HEK293T_AUC: 443.954
[13]; [30]
  MKL2_AUC: 398.602
[14]; [31]
  UISO_AUC: 416.553
[15]; [32]
  MCC13_AUC: 447.588

## CC#C[C@]1(O)CC[C@H]2[C@@H]3CCC4=CC(=O)CCC4=C3[C@@H](c3ccc(N(C)C)cc3)C[C@@]21C [Mifepristone]
[1]; [33]
  NIH3T3_AUC: 475.344
[2]; [34]
  MCC26_AUC: 459.158
[2]; [35]
  Area under the dose-response curve (AUC) MCC26 Replicate 1: 467.8
[2]; [36]
  Area under the dose-response curve (AUC) MCC26 Replicate 2: 425.4
[2]; [37]
  Area under the dose-response curve (AUC) MCC26 Replicate 3: 483.6
[3]; MIPE library, Control AUC minus VP-MCC AUC (therapeutic window), sheet S2E
  Control-VP-MCC: 171.607
[3]; MIPE library, mean AUC of VP-MCC cell lines, sheet S2E
  VP-MCC_Avg_AUC: 277.18
[4]; [34]
  WAGA_AUC: 291.204
[4]; WAGA
  Area under the dose-response curve (AUC) WAGA Replicate 1: 532.2
  Area under the dose-response curve (AUC) WAGA Replicate 2: 542.6
  Area under the dose-response curve (AUC) WAGA Replicate 3: 501.4
[5]; [34]
  MKL1_AUC: 274.173
[5]
  Area under the dose-response curve (AUC) MKL-1 Replicate 1: 491.0
  Area under the dose-response curve (AUC) MKL-1 Replicate 2: 482.0
  Area under the dose-response curve (AUC) MKL-1 Replicate 3: 520.5
[6]; MIPE library, Control AUC minus VN-MCC AUC (therapeutic window), sheet S2E
  Control-VN-MCC: 23.0495
[6]; MIPE library, mean AUC of VN-MCC cell lines, sheet S2E
  VN-MCC_Avg_AUC: 425.738
[7]; MIPE library, Control AUC minus MCC AUC (therapeutic window), sheet S2E
  Control-MCC: 97.3285
[8]; [33]
  CRL7250_AUC: 445.154
[9]; [33]
  HACAT_AUC: 471.301
[10]; MIPE library, mean AUC of six MCC cell lines, sheet S2E
  MCC_Avg_AUC: 351.459
[11]; MIPE library, mean AUC of control cell lines, sheet S2E
  Control_Avg_AUC: 448.787
[12]; [33]
  HEK293T_AUC: 403.35
[13]; [34]
  MKL2_AUC: 266.162
[13]
  Area under the dose-response curve (AUC) MKL-2 Replicate 1: 494.5
  Area under the dose-response curve (AUC) MKL-2 Replicate 2: 503.2
  Area under the dose-response curve (AUC) MKL-2 Replicate 3: 499.4
[14]; [34]
  UISO_AUC: 367.837
[14]; UISO
  Area under the dose-response curve (AUC) UISO Replicate 1: 472.5
  Area under the dose-response curve (AUC) UISO Replicate 2: 481.5
  Area under the dose-response curve (AUC) UISO Replicate 3: 472.0
[15]; [34]
  MCC13_AUC: 450.219
[15]; MCC13
  Area under the dose-response curve (AUC) MCC13 Replicate 1: 516.1
  Area under the dose-response curve (AUC) MCC13 Replicate 2: 505.4
  Area under the dose-response curve (AUC) MCC13 Replicate 3: 486.2

## COc1c(C)c2c(c(O)c1C/C=C(\C)CCC(=O)OCCN1CCOCC1)C(=O)OC2 [Mycophenolate mofetil]
[1]; [16]
  NIH3T3_AUC: 433.09
[2]; NPC library, qHTS dose-response AUC, MCC26
  MCC26_AUC: 393.051
[2]; [35]
  Area under the dose-response curve (AUC) MCC26 Replicate 1: 381.3
[2]; [36]
  Area under the dose-response curve (AUC) MCC26 Replicate 2: 385.2
[2]; [37]
  Area under the dose-response curve (AUC) MCC26 Replicate 3: 373.0
[3]; Control AUC minus VP-MCC AUC
  Control-VP-MCC: 263.498
[3]; [18]
  VP-MCC_Avg_AUC: 137.09
[3]; [19]
  Control-VP-MCC: 263.498
[4]; [20]
  WAGA_AUC: 157.003
[4]; WAGA
  Area under the dose-response curve (AUC) WAGA Replicate 1: 322.6
  Area under the dose-response curve (AUC) WAGA Replicate 2: 354.0
  Area under the dose-response curve (AUC) WAGA Replicate 3: 383.1
[5]; [21]
  MKL1_AUC: 148.352
[5]
  Area under the dose-response curve (AUC) MKL-1 Replicate 1: 342.8
  Area under the dose-response curve (AUC) MKL-1 Replicate 2: 365.2
  Area under the dose-response curve (AUC) MKL-1 Replicate 3: 378.9
[6]; Control AUC minus VN-MCC AUC
  Control-VN-MCC: 24.7903
[6]; [22]
  VN-MCC_Avg_AUC: 375.798
[6]; [23]
  Control-VN-MCC: 24.7903
[7]; [24]
  Control-MCC: 144.144
[8]; [25]
  CRL7250_AUC: 396.679
[9]; [26]
  HACAT_AUC: 439.79
[10]; NPC library, mean AUC of all 6 MCC cell lines
  MCC_Avg_AUC: 256.444
[10]; [27]
  MCC_Avg_AUC: 256.444
[11]; [28]
  Control_Avg_AUC: 400.588
[12]; NPC library, qHTS dose-response AUC, HEK293T control
  HEK293T_AUC: 332.795
[13]; [30]
  MKL2_AUC: 105.914
[13]
  Area under the dose-response curve (AUC) MKL-2 Replicate 1: 325.5
  Area under the dose-response curve (AUC) MKL-2 Replicate 2: 324.8
  Area under the dose-response curve (AUC) MKL-2 Replicate 3: 367.3
[14]; [31]
  UISO_AUC: 380.141
[14]; UISO
  Area under the dose-response curve (AUC) UISO Replicate 1: 348.1
  Area under the dose-response curve (AUC) UISO Replicate 2: 378.4
  Area under the dose-response curve (AUC) UISO Replicate 3: 389.6
[15]; [32]
  MCC13_AUC: 354.203
[15]; MCC13
  Area under the dose-response curve (AUC) MCC13 Replicate 1: 377.4
  Area under the dose-response curve (AUC) MCC13 Replicate 2: 383.7
  Area under the dose-response curve (AUC) MCC13 Replicate 3: 412.3

## CCN(CC)CCc1c[nH]c2ccccc12.O=C(O)/C=C/C(=O)O [N,N-Diethyltryptamine fumarate]
[1]
  NIH3T3_AUC: 478.712
[2]
  MCC26_AUC: 402.623
[3]
  Control-VP-MCC: 25.7182
  VP-MCC_Avg_AUC: 446.639
[4]
  WAGA_AUC: 448.87 and 448.871
[5]
  MKL1_AUC: 443.844
[6]
  Control-VN-MCC: 56.4273
  VN-MCC_Avg_AUC: 415.93
[7]
  Control-MCC: 41.0728
[8]
  CRL7250_AUC: 461.166
[9]
  HACAT_AUC: 490.224 and 490.225
[10]
  MCC_Avg_AUC: 431.284
[11]
  Control_Avg_AUC: 472.357
[12]
  HEK293T_AUC: 459.326
[13]
  MKL2_AUC: 447.202
[14]
  UISO_AUC: 405.6
[15]
  MCC13_AUC: 439.565
